Several values for one entry are separate records, joined by “and”; a condition that tells them apart may be missing. Equal values may be shown once.
The molecules below were run against T1, human Nav1.8 (hNav1.8) ion channel (Homo sapiens, UniProt Q9Y5Y9) (assay: Inhibition of human Nav1.8 stably expressed in SH-SY-5Y cells (membrane potential dye fluorescence assay)). Details: not given.
T1 construct: expressed in transfected cells
T1 sequence (Q9Y5Y9 whole entry): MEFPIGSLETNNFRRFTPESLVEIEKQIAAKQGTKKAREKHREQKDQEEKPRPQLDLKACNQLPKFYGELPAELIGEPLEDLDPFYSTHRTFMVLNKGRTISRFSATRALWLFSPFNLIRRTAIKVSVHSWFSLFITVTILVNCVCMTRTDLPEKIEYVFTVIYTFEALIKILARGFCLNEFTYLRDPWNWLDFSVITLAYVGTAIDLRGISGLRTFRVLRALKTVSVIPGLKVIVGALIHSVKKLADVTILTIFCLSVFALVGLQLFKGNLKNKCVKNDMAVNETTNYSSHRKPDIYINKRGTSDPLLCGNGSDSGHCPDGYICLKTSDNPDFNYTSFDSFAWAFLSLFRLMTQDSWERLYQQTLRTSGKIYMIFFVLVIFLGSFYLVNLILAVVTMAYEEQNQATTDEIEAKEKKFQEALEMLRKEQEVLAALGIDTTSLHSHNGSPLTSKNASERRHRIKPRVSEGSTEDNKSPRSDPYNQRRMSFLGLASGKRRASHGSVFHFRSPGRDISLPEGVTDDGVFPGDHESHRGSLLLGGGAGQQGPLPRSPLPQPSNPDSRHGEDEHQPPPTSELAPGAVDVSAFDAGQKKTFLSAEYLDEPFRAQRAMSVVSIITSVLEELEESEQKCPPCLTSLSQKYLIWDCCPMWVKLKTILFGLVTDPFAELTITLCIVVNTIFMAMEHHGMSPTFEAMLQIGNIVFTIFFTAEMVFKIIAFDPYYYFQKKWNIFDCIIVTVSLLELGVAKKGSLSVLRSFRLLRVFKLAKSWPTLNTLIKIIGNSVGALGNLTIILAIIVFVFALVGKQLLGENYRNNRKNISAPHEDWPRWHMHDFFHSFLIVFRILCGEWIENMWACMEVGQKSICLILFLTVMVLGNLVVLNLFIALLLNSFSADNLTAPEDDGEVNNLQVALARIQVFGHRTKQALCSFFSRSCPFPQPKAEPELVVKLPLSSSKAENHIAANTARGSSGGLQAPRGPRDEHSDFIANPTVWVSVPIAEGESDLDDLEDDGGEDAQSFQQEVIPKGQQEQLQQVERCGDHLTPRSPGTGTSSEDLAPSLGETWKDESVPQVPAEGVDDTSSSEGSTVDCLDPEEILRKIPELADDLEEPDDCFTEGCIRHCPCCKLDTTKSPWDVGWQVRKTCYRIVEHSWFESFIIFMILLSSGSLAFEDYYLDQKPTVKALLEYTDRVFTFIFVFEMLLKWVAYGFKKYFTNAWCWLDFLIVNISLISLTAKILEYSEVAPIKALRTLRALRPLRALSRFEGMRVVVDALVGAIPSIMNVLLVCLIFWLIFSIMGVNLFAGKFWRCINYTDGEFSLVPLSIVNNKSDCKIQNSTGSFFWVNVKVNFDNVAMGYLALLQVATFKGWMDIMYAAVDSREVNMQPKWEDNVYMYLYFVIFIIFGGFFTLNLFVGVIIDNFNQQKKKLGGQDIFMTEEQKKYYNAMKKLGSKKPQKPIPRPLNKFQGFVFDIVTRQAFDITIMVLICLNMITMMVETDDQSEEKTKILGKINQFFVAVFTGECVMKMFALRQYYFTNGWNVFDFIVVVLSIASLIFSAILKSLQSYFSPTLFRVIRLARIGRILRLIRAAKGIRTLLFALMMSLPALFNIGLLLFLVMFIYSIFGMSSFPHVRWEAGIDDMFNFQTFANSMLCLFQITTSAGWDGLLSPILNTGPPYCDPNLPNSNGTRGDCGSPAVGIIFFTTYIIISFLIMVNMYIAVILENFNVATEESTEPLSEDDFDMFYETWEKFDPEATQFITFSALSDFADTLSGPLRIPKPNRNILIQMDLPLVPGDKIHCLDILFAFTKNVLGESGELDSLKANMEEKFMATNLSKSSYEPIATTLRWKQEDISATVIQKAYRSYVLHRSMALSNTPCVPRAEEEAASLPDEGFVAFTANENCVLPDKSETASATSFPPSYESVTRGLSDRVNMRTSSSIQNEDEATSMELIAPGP
Type: cell-based
Method: Inhibition of Human Nav1.8 Stably Expressed in SH-SY-5Y Cells
A SH-SY-5Y neuroblastoma cell line stably expressing the human […] (hNav1.8) ion channel was constructed. This cell line has been used to develop a medium to high throughput assay for determining the ability of test compounds to inhibit membrane depolarisation mediated via the hNav1.8 channel.
SH-SY-5Y hNav1.8 are grown in adherent monolayer culture using 50:50 Ham's F-12/EMEM tissue culture medium supplemented with 15% (v/v) foetal bovine serum; 2 mM L-glutamine, 1% NEAA and 600 μg·ml^−1 Geneticin sulphate. Cells are removed from the tissue culture flask using trypsin/EDTA and re-plated into black walled, clear bottom 96-well assay plates at 50,000 cells·well^−1 24 hours prior to assay.
On the day of assay the cell assay plates are washed to remove cell culture medium using a sodium free assay buffer (145 mM tetramethyl ammonium chloride; 2 mM calcium chloride; 0.8 mM magnesium chloride hexahydrate; 10 mM HEPES; 10 mM glucose; 5 mM potassium chloride, pH 7.4). Fluorescent membrane potential dye solution (FLIPR™ membrane potential dye, Molecular Devices Corporation), containing 10 μM of a pyrethroid to prevent channel inactivation and 250 nM tetrodotoxin (TTX) to reduce interference from TTX-sensitive sodium channels present in the cell line. Test compound, initially dissolved in dimethyl sulfoxide but further diluted in sodium free buffer, is added to achieve the final test concentration range of 100 μM-0.05 μM.
Cell plates are incubated for 30 minutes at room temperature to allow equilibration of dye and test compound. Plates are then transferred to a fluorescence plate reader for fluorescence measurement using an excitation wavelength of 530 nm whilst measuring fluorescence emission at 565 nm. Baseline fluorescence levels are first determined before the addition of a sodium containing buffer (220 mM sodium chloride; 2 mM calcium chloride; 0.8 mM magnesium chloride hexahydrate; […]; 10 mM glucose; 5 mM potassium chloride. pH 7.4) to cause membrane depolarisation in those cells where channel block has not been effected (final sodium concentration=72.5 mM). Membrane depolarisation is registered by an increase in fluorescence emission at 565 nm.
The change in fluorescence seen in each test well upon the addition of sodium containing buffer is calculated relative to the baseline fluorescence for that well. This figure is then used for calculating the IC50 for each test compound.
COc1cccc2c1CN(CC(=O)NCCSC(c1ccccc1)c1ccccc1)CC2 [Compound 96, N-(2-Benzhydrylsulfanyl-ethyl)-2-(8-methoxy-3,4-dihydro-1H-isoquinolin-2-yl)-acetamide] gave an IC50 of 1.11 µM.
COc1cccc2c1CN(CC(=O)NCC[S+]([O-])C(c1ccccc1)c1ccccc1)CC2 (stereo not drawn) [Compound 103, N-[2-(Diphenyl-methanesulfinyl)-ethyl]-2-(8-methoxy-3,4-dihydro-1H-isoquinolin-2-yl)-acetamide] gave an IC50 of 2.25 µM.

Same assay, conditions: Table 1; SH-SY-5Y hNav1.8 cells, inhibition of membrane depolarisation, FLIPR membrane potential dye, 250 nM TTX, test concentration range 100 μM-0.05 μM; read-out: IC50
Work on “3,4-Dihydro-1H-isoquinoline-2-carbothioic acid benzhydryl-amide [Example 53]” yielded an IC50 of 4.06 µM.

Same assay, conditions: Table 2 (compound numbers of the list in the description); SH-SY-5Y hNav1.8 cells, inhibition of membrane depolarisation, FLIPR membrane potential dye, 250 nM TTX, test concentration range 100 μM-0.05 μM; read-out: IC50
For COc1cccc2c1CN(CC(=O)N1c3ccccc3OCC1c1ccccc1)CC2 (stereo not drawn) [Compound 71, 2-(8-methoxy-3,4-dihydro-1H-isoquinolin-2-yl)-1-(3-phenyl-2,3-dihydro-benzo[1,4]oxazin-4-yl)-ethanone], the IC50 was 2.18 µM.
With COc1cccc2c1CN(CC(=O)N1c3ccccc3Oc3ccccc31)CC2 [Compound 72, 2-(8-methoxy-3,4-dihydro-1H-isoquinolin-2-yl)-1-phenoxazin-10-yl-ethanone] the IC50 was 0.49 µM and 1.29 µM.
For COc1cccc2c1CN(CC(=O)N1c3ccccc3CCc3ccccc31)CC2 [Compound 73, 1-(10,11-dihydro-dibenzo[b,f]azepin-5-yl)-2-(8-methoxy-3,4-dihydro-1H-isoquinolin-2-yl)-ethanone], the IC50 was 1.28 µM.
Work on COc1cccc2c1CN(CCCOC=C(c1ccccc1)c1ccccc1)CC2 [Compound 74, 2-[3-(2,2-diphenyl-vinyloxy)-propyl]-8-methoxy-1,2,3,4-tetrahydro-isoquinoline] yielded an IC50 of 1.8 µM.
In the case of COc1ccc2c(c1)CCCN(C(=S)NC(c1ccccc1)c1ccccc1)C2 [Compound 76, 7-methoxy-1,3,4,5-tetrahydro-benzo[c]azepine-2-carbothioic acid benzhydryl-amide], the IC50 is reported as 14.8 µM.
Work on COc1cccc2c1CN(CC(=O)N(C(C)C)C(C)C)CC2 [Compound 78, N,N-diisopropyl-2-(8-methoxy-3,4-dihydro-1H-isoquinolin-2-yl)-acetamide] yielded an IC50 of 28.5 µM.
COc1cccc2c1CN(CC(=O)N(Cc1ccccc1)Cc1ccccc1)CC2 [Compound 79, N,N-dibenzyl-2-(8-methoxy-3,4-dihydro-1H-isoquinolin-2-yl)-acetamide] showed an IC50 of 1.02 µM.
Molecule COc1cccc2c1CN(CC(=O)NCCCC(c1ccccc1)c1ccccc1)CC2 [Compound 81, N-(4,4-diphenyl-butyl)-2-(8-methoxy-3,4-dihydro-1H-isoquinolin-2-yl)-acetamide] has an IC50 of 1.4 µM.
COc1cccc2c1CN(CC(=O)NCCCC(c1ccccc1)c1ccccc1)C2 [Compound 82, N-(4,4-diphenyl-butyl)-2-(4-methoxy-1,3-dihydro-isoindol-2-yl)-acetamide] was tested, and the IC50 was 1.06 µM.
In the case of COc1ccc2c(c1)CCCN(CC(=O)NC(c1ccccc1)c1ccccc1)C2 [Compound 83, N-benzhydryl-2-(7-methoxy-1,3,4,5-tetrahydro-benzo[c]azepin-2-yl)-acetamide], the IC50 is reported as 0.83 µM.
Work on COc1ccc2c(c1)CCCN(CC(=O)NCC(c1ccccc1)c1ccccc1)C2 [Compound 84, N-(2,2-diphenyl-ethyl)-2-(7-methoxy-1,3,4,5-tetrahydro-benzo[c]azepin-2-yl)-acetamide] yielded an IC50 of 0.4 µM.
Work on COc1ccc2c(c1)CCCN(CC(=O)NCCC(c1ccccc1)c1ccccc1)C2 [Compound 85, N-(3,3-diphenyl-propyl)-2-(7-methoxy-1,3,4,5-tetrahydro-benzo[c]azepin-2-yl)-acetamide] yielded an IC50 of 1.08 µM.
Work on COc1ccc2c(c1)CCCN(CC(=O)N(Cc1ccccc1)Cc1ccccc1)C2 [Compound 86, N,N-dibenzyl-2-(7-methoxy-1,3,4,5-tetrahydro-benzo[c]azepin-2-yl)-acetamide] yielded an IC50 of 0.49 µM.
Work on COc1cccc2c1CN(CCC(=O)N(Cc1ccccc1)Cc1ccccc1)CC2 [Compound 87, N,N-dibenzyl-3-(8-methoxy-3,4-dihydro-1H-isoquinolin-2-yl)-propionamide] yielded an IC50 of 0.49 µM.
With COc1cccc2c1CN(CC(=O)NCCC(c1ccccc1)c1ccccc1)C2 [Compound 88, N-(3,3-diphenyl-propyl)-2-(4-methoxy-1,3-dihydro-isoindol-2-yl)-acetamide] the IC50 was 2.09 µM.
CCOc1cccc2c1CN(CC(=O)N(Cc1ccccc1)Cc1ccccc1)CC2 [Compound 91, N,N-Dibenzyl-2-(8-ethoxy-3,4-dihydro-1H-isoquinolin-2-yl)-acetamide] showed an IC50 of 6.98 µM.
With CCOc1cccc2c1CN(CC(=O)NCCCC(c1ccccc1)c1ccccc1)CC2 [Compound 92, N-(4,4-Diphenyl-butyl)-2-(8-ethoxy-3,4-dihydro-1H-isoquinolin-2-yl)-acetamide] the IC50 was 4.82 µM.
Molecule COc1cccc2c1CN(CC(=O)NCCCOC(c1ccccc1)c1ccccc1)CC2 [Compound 94, N-(3-Benzhydryloxy-propyl)-2-(8-methoxy-3,4-dihydro-1H-isoquinolin-2-yl)-acetamide] has an IC50 of 2.84 µM.
With C=CCOc1cccc2c1CN(CC(=O)NCCC(c1ccccc1)c1ccccc1)CC2 [Compound 97, 2-(8-Allyloxy-3,4-dihydro-1H-isoquinolin-2-yl)-N-(3,3-diphenyl-propyl)-acetamide] the IC50 was 2.27 µM.
Nc1cccc2c1CN(CC(=O)NCC(c1ccccc1)c1ccccc1)C2 [Compound 98, 2-(4-Amino-1,3-dihydro-isoindol-2-yl)-N-(2,2-diphenyl-ethyl)-acetamide] was tested, and the IC50 was 6.76 µM.
Work on Nc1cccc2c1CN(CC(=O)NCCC(c1ccccc1)c1ccccc1)C2 [Compound 99, 2-(4-Amino-1,3-dihydro-isoindol-2-yl)-N-(3,3-diphenyl-propyl)-acetamide] yielded an IC50 of 2.43 µM.
Molecule Nc1cccc2c1CN(CC(=O)NCCCC(c1ccccc1)c1ccccc1)C2 [Compound 100, 2-(4-Amino-1,3-dihydro-isoindol-2-yl)-N-(4,4-diphenyl-butyl)-acetamide] has an IC50 of 0.97 µM.
Nc1cccc2c1CN(CC(=O)N(Cc1ccccc1)Cc1ccccc1)C2 [Compound 101, 2-(4-Amino-1,3-dihydro-isoindol-2-yl)-N,N-dibenzyl-acetamide] gave an IC50 of 4.26 µM.
In the case of Nc1cccc2c1CN(CCCC(c1ccc(F)cc1)c1ccc(F)cc1)C2 [Compound 102, 2-[4,4-Bis-(4-fluoro-phenyl)-butyl]-2,3-dihydro-1H-isoindol-4ylamine], the IC50 is reported as 0.86 µM.
In the case of COc1cccc2c1CN(CC(=O)NC(C)c1ccccc1)CC2 (stereo not drawn) [Compound 105, 2-(8-Methoxy-3,4-dihydro-1H-isoquinolin-2-yl)-N-(1-phenyl-ethyl)-acetamide], the IC50 is reported as 15.9 µM.
In the case of O=C(CNC(c1ccccc1)c1ccccc1)N1Cc2ccccc2C1 [Compound 107, 2-(Benzhydryl-amino)-1-(1,3-dihydro-isoindol-2-yl)-ethanone], the IC50 is reported as 2.26 µM.
Nc1cccc2c1CN(CC(=O)NC(c1ccccc1)c1ccccc1)CC2 [Compound 108, 2-(8-Amino-3,4-dihydro-1H-isoquinolin-2-yl)-N-benzhydryl-acetamide] was tested, and the IC50 was 3.48 µM.
Nc1cccc2c1CN(CC(=O)NCCCC(c1ccccc1)c1ccccc1)CC2 [Compound 109, 2-(8-Amino-3,4-dihydro-1H-isoquinolin-2-yl)-N-(4,4-diphenyl-butyl)-acetamide] was tested, and the IC50 was 1.8 µM.
In the case of Nc1cccc2c1CN(CCCC(c1ccc(F)cc1)c1ccc(F)cc1)CC2 [Compound 110, 2-[4,4-Bis-(4-fluoro-phenyl)-butyl]-1,2,3,4-tetrahydro-isoquinolin-8-ylamine], the IC50 is reported as 0.48 µM.
Nc1cccc2c1CN(CC(=O)NCC(c1ccccc1)c1ccccc1)CC2 [Compound 111, 2-(8-Amino-3,4-dihydro-1H-isoquinolin-2-yl)-N-(2,2-diphenyl-ethyl)-acetamide] showed an IC50 of 3.88 µM.
In the case of CC(=O)Nc1cccc2c1CN(CC(=O)NCCCC(c1ccccc1)c1ccccc1)CC2 [Compound 112, 2-(8-Acetylamino-3,4-dihydro-1H-isoquinolin-2-yl)-N-(4,4-diphenyl-butyl)-acetamide], the IC50 is reported as 0.79 µM.
COc1ccc(C(CCNC(=O)CN2CCc3ccccc3C2)c2ccc(OC)cc2)cc1 [Compound 114, N-[3,3-Bis-(4-methoxy-phenyl)-propyl]-2-(3,4-dihydro-1H-isoquinolin-2-yl)-acetamide] was tested, and the IC50 was 10.6 µM.
For COc1ccc(C(CCNC(=O)CN2CCc3cccc(OC)c3C2)c2ccc(OC)cc2)cc1 [Compound 115, N-[3,3-Bis-(4-methoxy-phenyl)-propyl]-2-(8-methoxy-3,4-dihydro-1H-isoquinolin-2-yl)-acetamide], the IC50 was 2.35 µM.
